Test results taken from US20210251991A1, “SUBSTITUTED 2,2'-BIPYRIMIDINYL COMPOUNDS, ANALOGUES THEREOF, AND METHODS USING SAME” (priority 2018, published 2021).

Test system: HBsAg in HepG2.2.15 cells
Test: HBsAg assay: inhibition of HBsAg in HepG2.2.15 cells (chemiluminescence immunoassay of supernatant)
Assay type: cell-based, hepatitis B virus
Conditions: Hepatitis B virus, HepG2.2.15, 144 h, read-out: sAg EC50, HepG2.2.15 cells, supernatant collected at day 6 after exposure, HBsAg CLIA
Procedure: Inhibition of HBsAg was determined in HepG2.2.15 cells. Cells were maintained in culture medium containing 10% fetal calf serum, […], Glutamine, penicillin/streptomycin. Cells were seeded in 96-well collagen-coated plate at a density of 30,000 cells/well. Serially diluted compounds were added to cells next day at the final DMSO concentration of 0.5%. Cells were incubated with compounds for 2-3 days, after which medium was removed. Fresh medium containing compounds was added to cells for additional 3-4 days. At day 6 after exposure of compounds, supernatant was collected, the HBsAg immunoassay (microplate-based chemiluminescence immunoassay kits, CLIA, Autobio Diagnosics Co., Zhengzhou, China, Catalog #CL0310-2) was used to determine the level of HBsAg according to manufactory instruction. Dose-response curves were generated and the EC50 value (effective concentrations that achieved 50% inhibitory effect) were determined using XLfit software. In addition, cells were seeded at a density of 5,000 cells/well for determination of cell viability in the presence and absence of compounds by using CellTiter-Glo reagent (Promega).

Row | SMILES | EC50
1 | CCC1c2cc(OC)c(F)cc2CN1c1ccnc(-c2ncccn2)n1 (single isomer, unassigned) [Example 77, 2-([2,2′-Bipyrimidin]-4-yl)-1-ethyl-5-fluoro-6-methoxyisoindoline] | 110 nM
2 | CCC1c2cc(F)c(OC)cc2CN1c1cnc(C(=O)NS(C)(=O)=O)nc1 (single isomer, unassigned) [Example 102, 5-(1-Ethyl-6-fluoro-5-methoxyisoindolin-2-yl)-N-(methylsulfonyl)pyrimidine-2-carboxamide] | 620 nM

Same assay, conditions: read-out: sAg EC50; HepG2.2.15 cells, supernatant collected at day 6 after exposure, HBsAg CLIA

Row | SMILES | EC50
3 | CCC1c2ccccc2CCN1c1cnc(-c2ncccn2)nc1 (single isomer, unassigned) [Example 11, 2-([2,2′-Bipyrimidin]-5-yl)-1-ethyl-1,2,3,4-tetrahydroisoquinoline] | 1400 nM
4 | CCC1c2ccccc2CCN1c1cnc(-c2ncccn2)nc1 (single isomer, unassigned) [Example 12, 2-([2,2′-Bipyrimidin]-5-yl)-1-ethyl-1,2,3,4-tetrahydroisoquinoline] | 190 nM
5 | CCC1c2cc(OC)c(F)c(F)c2CCN1c1cnc(-c2ncccn2)nc1 (single isomer, unassigned) [Example 30, 1-Ethyl-5,6-difluoro-7-methoxy-2-(2-pyrimidin-2-ylpyrimidin-5-yl)-3,4-dihydro-1H-isoquinoline] | 130 nM
6 | CCC1c2cc(OC)c(F)c(F)c2CCN1c1cnc(-c2ncccn2)nc1 (single isomer, unassigned) [Example 31, 1-Ethyl-5,6-difluoro-7-methoxy-2-(2-pyrimidin-2-ylpyrimidin-5-yl)-3,4-dihydro-1H-isoquinoline] | 1200 nM
7 | CCC1c2ccc(F)c(F)c2CCN1c1cnc(-c2ncccn2)nc1 (single isomer, unassigned) [Example 33, 1-Ethyl-5,6-difluoro-2-(2-pyrimidin-2-ylpyrimidin-5-yl)-3,4-dihydro-1H-isoquinoline] | 390 nM
8 | CCC1c2ccc(F)c(F)c2CCN1c1cnc(-c2ncccn2)nc1 (single isomer, unassigned) [Example 34, 1-Ethyl-5,6-difluoro-2-(2-pyrimidin-2-ylpyrimidin-5-yl)-3,4-dihydro-1H-isoquinoline] | 160 nM
9 | CC1c2ccc(F)c(F)c2CCN1c1ccnc(-c2ncccn2)n1 (single isomer, unassigned) [Example 37, 2-([2,2′-Bipyrimidin]-4-yl)-5,6-difluoro-1-methyl-1,2,3,4-tetrahydroisoquinoline] | 310 nM
10 | CC1c2ccc(F)c(F)c2CCN1c1ccnc(-c2ncccn2)n1 (single isomer, unassigned) [Example 38, 2-([2,2′-Bipyrimidin]-4-yl)-5,6-difluoro-1-methyl-1,2,3,4-tetrahydroisoquinoline] | 1400 nM
11 | CCC1c2ccc(F)c(F)c2CCN1c1ccnc(-c2ncccn2)n1 (single isomer, unassigned) [Example 40, 1-Ethyl-5,6-difluoro-2-(2-pyrimidin-2-ylpyrimidin-4-yl)-3,4-dihydro-1H-isoquinoline] | 500 nM
12 | CCC1c2ccc(F)c(F)c2CCN1c1ccnc(-c2ncccn2)n1 (single isomer, unassigned) [Example 41, 1-Ethyl-5,6-difluoro-2-(2-pyrimidin-2-ylpyrimidin-4-yl)-3,4-dihydro-1H-isoquinoline] | 2600 nM
13 | CCC1c2c(OC)ccc(F)c2CCN1c1ccnc(-c2ncccn2)n1 (single isomer, unassigned) [Example 43, 1-Ethyl-5-fluoro-8-methoxy-2-(2-pyrimidin-2-ylpyrimidin-4-yl)-3,4-dihydro-1H-isoquinoline] | 60 nM
14 | CCC1c2c(OC)ccc(F)c2CCN1c1ccnc(-c2ncccn2)n1 (single isomer, unassigned) [Example 44, 1-Ethyl-5-fluoro-8-methoxy-2-(2-pyrimidin-2-ylpyrimidin-4-yl)-3,4-dihydro-1H-isoquinoline] | 7000 nM
15 | CCC1c2cc(F)c(F)cc2CN1c1ccnc(-c2ncccn2)n1 (single isomer, unassigned) [Example 49, 2-([2,2′-Bipyrimidin]-4-yl)-1-ethyl-5,6-difluoroisoindoline] | 44 nM
16 | CCC1c2cc(F)c(F)cc2CN1c1ccnc(-c2ncccn2)n1 (single isomer, unassigned) [Example 50, 2-([2,2′-Bipyrimidin]-4-yl)-1-ethyl-5,6-difluoroisoindoline] | 400 nM
17 | CCC1c2cc(OC)c(OC)cc2CN1c1ccnc(-c2ncccn2)n1 (single isomer, unassigned) [Example 56, 2-([2,2′-Bipyrimidin]-4-yl)-1-ethyl-5,6-dimethoxyisoindoline] | 12 nM
18 | CCC1c2cc(OC)c(OC)cc2CN1c1ccnc(-c2ncccn2)n1 (single isomer, unassigned) [Example 57, 2-([2,2′-Bipyrimidin]-4-yl)-1-ethyl-5,6-dimethoxyisoindoline] | 76 nM
19 | CCC1c2cc(F)c(OC)cc2CN1c1ccnc(-c2ncccn2)n1 (single isomer, unassigned) [Example 64, 2-([2,2′-Bipyrimidin]-4-yl)-1-ethyl-6-fluoro-5-methoxyisoindoline] | 12 nM

Row | SMILES | EC50
20 | CCC1c2cc(F)c(OC)cc2CN1c1ccnc(-c2ncccn2)n1 (single isomer, unassigned) [Example 65, 2-([2,2′-Bipyrimidin]-4-yl)-1-ethyl-6-fluoro-5-methoxyisoindoline] | 230 nM
21 | CCC1c2cc(F)c(OC)cc2CN1c1nc(-c2ncccn2)ncc1-c1ccccc1 (single isomer, unassigned) [Example 66, 1-Ethyl-6-fluoro-5-methoxy-2-(5-phenyl-[2,2′-bipyrimidin]-4-yl)isoindoline] | 1000 nM
22 | CCC1c2cc(F)c(OC)cc2CN1c1nc(-c2ncccn2)ncc1-c1ccccc1 (single isomer, unassigned) [Example 67, 1-Ethyl-6-fluoro-5-methoxy-2-(5-phenyl-[2,2′-bipyrimidin]-4-yl)isoindoline] | 18000 nM
23 | CCC1c2cc(F)c(OC)cc2CN1c1nc(-c2ncccn2)ncc1C (single isomer, unassigned) [Example 68, 1-Ethyl-6-fluoro-5-methoxy-2-(5-methyl-[2,2′-bipyrimidin]-4-yl)isoindoline] | 2 nM
24 | CCC1c2cc(F)c(OC)cc2CN1c1nc(-c2ncccn2)ncc1C (single isomer, unassigned) [Example 69, 1-Ethyl-6-fluoro-5-methoxy-2-(5-methyl-[2,2′-bipyrimidin]-4-yl)isoindoline] | 59 nM
25 | CCC1c2cc(F)c(OC)cc2CN1c1nc(-c2ncccn2)ncc1F (single isomer, unassigned) [Example 71, 1-Ethyl-6-fluoro-2-(5-fluoro-[2,2′-bipyrimidin]-4-yl)-5-methoxyisoindoline] | 3 nM
26 | CCC1c2cc(F)c(OC)cc2CN1c1nc(-c2ncccn2)ncc1F (single isomer, unassigned) [Example 72, 1-Ethyl-6-fluoro-2-(5-fluoro-[2,2′-bipyrimidin]-4-yl)-5-methoxyisoindoline] | 67 nM
27 | CCC1c2cc(F)c(OC)cc2CN1c1nc(-c2ncccn2)ncc1OC (single isomer, unassigned) [Example 73, 1-Ethyl-6-fluoro-5-methoxy-2-(5-methoxy-[2,2′-bipyrimidin]-4-yl)isoindoline] | 1000 nM
28 | CCC1c2cc(F)c(OC)cc2CN1c1nc(-c2ncccn2)ncc1OC (single isomer, unassigned) [Example 74, 1-Ethyl-6-fluoro-5-methoxy-2-(5-methoxy-[2,2′-bipyrimidin]-4-yl)isoindoline] | 8 nM
29 | CCC1c2cc(OC)c(F)cc2CN1c1ccnc(-c2ncccn2)n1 (single isomer, unassigned) [Example 78, 2-([2,2′-Bipyrimidin]-4-yl)-1-ethyl-5-fluoro-6-methoxyisoindoline] | 98 nM
30 | CCC1c2cc(F)c(OC)cc2CN1c1cnc(-c2ncccn2)nc1 (single isomer, unassigned) [Example 89, 2-([2,2′-Bipyrimidin]-5-yl)-1-ethyl-6-fluoro-5-methoxyisoindoline] | 8 nM
31 | CCC1c2cc(F)c(OC)cc2CN1c1cnc(-c2ncccn2)nc1 (single isomer, unassigned) [Example 90, 2-([2,2′-Bipyrimidin]-5-yl)-1-ethyl-6-fluoro-5-methoxyisoindoline] | 260 nM
32 | CCC1c2cc(F)c(OC)cc2CN1c1cnc(C(=O)O)nc1 (single isomer, unassigned) [Example 99, 5-(1-Ethyl-6-fluoro-5-methoxyisoindolin-2-yl)pyrimidine-2-carboxylic Acid] | 7000 nM
33 | CCC1c2cc(F)c(OC)cc2CN1c1cnc(C(=O)O)nc1 (single isomer, unassigned) [Example 100, 5-(1-Ethyl-6-fluoro-5-methoxyisoindolin-2-yl)pyrimidine-2-carboxylic Acid] | 200 nM
34 | CCC1c2cc(F)c(OC)cc2CN1c1cnc(C(=O)NS(C)(=O)=O)nc1 (single isomer, unassigned) [Example 103, 5-(1-Ethyl-6-fluoro-5-methoxyisoindolin-2-yl)-N-(methylsulfonyl)pyrimidine-2-carboxamide] | 600 nM
35 | CCC1c2cc(F)c(OC)cc2CN1c1cnc(C(=O)Nc2ccccn2)nc1 (single isomer, unassigned) [Example 107, 5-(1-Ethyl-6-fluoro-5-methoxyisoindolin-2-yl)-N-(pyridin-2-yl)pyrimidine-2-carboxamide] | 49000 nM
